In brackets after ≈: the same amount, converted by molar mass.
Columns and labels:
Assay type in all cases: cell-based
K. pneumoniae MP-546 = assay: MIC determination by CLSI broth dilution, K. pneumoniae MP-546; settings: strain MP-546; for MIC: Klebsiella pneumoniae, MP546, CLSI broth dilution; for MIC K. pneumoniae MP-546: CLSI broth dilution
P. aeruginosa MP-3 = assay: MIC determination by CLSI broth dilution, P. aeruginosa MP-3; settings: for MIC: Pseudomonas aeruginosa, MP3, strain MP-3; for MIC P aeruginosa MP-3: strain MP-3
S. aureus MP-12 = assay: microbe, parasite or virus in culture; settings: Staphylococcus aureus, MP12, read-out: MIC S. aureus MP-12
A. baumannii MP-15 = assay: MIC determination by CLSI broth dilution, A. baumannii MP-15; settings: for MIC: Acinetobacter baumannii, MP15, strain MP-15, read-out: MIC A. baumanii MP-15; for MIC A. baumanii MP-15: strain MP-15
E. coli MP-4 = assay: MIC determination by CLSI broth dilution, E. coli MP-4; settings: strain MP-4; for MIC: Escherichia coli, MP4, CLSI broth dilution; for MIC E. coli MP-4: CLSI broth dilution
K. pneumoniae MP-648 = assay: MIC determination by CLSI broth dilution, K. pneumoniae MP-648; settings: strain MP-648; for MIC: Klebsiella pneumoniae, MP648, CLSI broth dilution; for MIC K. pneumoniae MP-648: CLSI broth dilution

Row | SMILES | MIC (K. pneumoniae MP-546) [µg/mL] | MIC (P. aeruginosa MP-3) [µg/mL] | MIC (S. aureus MP-12) [µg/mL] | MIC (A. baumannii MP-15) [µg/mL] | MIC (E. coli MP-4) [µg/mL] | MIC (K. pneumoniae MP-648) [µg/mL] | MIC K. pneumoniae MP-546 (K. pneumoniae MP-546) | MIC P aeruginosa MP-3 (P. aeruginosa MP-3) | MIC A. baumanii MP-15 (A. baumannii MP-15) | MIC E. coli MP-4 (E. coli MP-4) | MIC K. pneumoniae MP-648 (K. pneumoniae MP-648)
1 | CCCN1CC(C[C@@H]2COC(=O)C(C)(C)C(=O)[C@H](C)[C@@H](O[C@@H]3O[C@H](C)C[C@H](N(C)C)[C@H]3O)[C@](C)(OC)C[C@@H](C)CN2C)C1 [Compound 1] | 4 to 32 (≈ 6.54 to 52.3 µM) | > 32 | > 32 | > 32 | < 4 | > 32 | – | – | – | – | –
2 | C=C(C[C@@H]1COC(=O)C(C)(C)C(=O)[C@H](C)[C@@H](O[C@@H]2O[C@H](C)C[C@H](N(C)C)[C@H]2O)[C@](C)(OC)C[C@@H](C)CN1C)CN(CCC)CCC [Compound 2] | > 32 | > 32 | > 32 | > 32 | 4 to 32 (≈ 6.12 to 48.9 µM) | > 32 | – | – | – | – | –
3 | CCN(C)CC[C@@H](O)[C@@H]1COC(=O)C(C)(C)C(=O)[C@H](C)[C@@H](O[C@@H]2O[C@H](C)C[C@H](N(C)C)[C@H]2O)[C@](C)(OC)C[C@@H](C)CN1C [Compound 3] | < 4 | > 32 | 4 to 32 (≈ 6.5 to 52 µM) | > 32 | < 4 | < 4 | – | – | – | – | –
4 | CO[C@]1(C)C[C@@H](C)CN(C)[C@@H](CCCO)COC(=O)C(C)(C)C(=O)[C@H](C)[C@H]1O[C@@H]1O[C@H](C)C[C@H](N(C)C)[C@H]1O [Compound 4, (3S,6R,8R,9R,10R)-9-(((2S,3R,4S,6R)-4-(dimethylamino)-3-hydroxy-6-methyltetrahydro-2H-pyran-2-yl)oxy)-3-(3-hydroxypropyl)-8-methoxy-4,6,8,10,12,12-hexamethyl-1-oxa-4-azacyclotridecane-11,13-dione] | 4 to 32 (≈ 7.16 to 57.3 µM) | > 32 | > 32 | > 32 | < 4 | 4 to 32 (≈ 7.16 to 57.3 µM) | – | – | – | – | –
5 | CO[C@]1(C)C[C@@H](C)CN(C)[C@@H](CCCN(C)C(C)(C)C)COC(=O)C(C)(C)C(=O)[C@H](C)[C@H]1O[C@@H]1O[C@H](C)C[C@H](N(C)C)[C@H]1O [Compound 7, (3S,6R,8R,9R,10R)-3-(3-(tert-butyl(methyl)amino)propyl)-9-(((2S,3R,4S,6R)-4-(dimethylamino)-3-hydroxy-6-methyltetrahydro-2H-pyran-2-yl)oxy)-8-methoxy-4,6,8,10,12,12-hexamethyl-1-oxa-4-azacyclotridecane-11,13-dione] | 4 to 32 (≈ 6.37 to 51 µM) | > 32 | 4 to 32 (≈ 6.37 to 51 µM) | > 32 | < 4 | < 4 | – | – | – | – | –
6 | CO[C@]1(C)C[C@@H](C)CN(CC(C)C)[C@@H](CCCN(C)C(C)C)COC(=O)C(C)(C)C(=O)[C@H](C)[C@H]1O[C@@H]1O[C@H](C)C[C@H](N(C)C)[C@H]1O [Compound 8, (3S,6R,8R,9R,10R)-9-(((2S,3R,4S,6R)-4-(dimethylamino)-3-hydroxy-6-methyltetrahydro-2H-pyran-2-yl)oxy)-4-isobutyl-3-(3-(isopropyl(methyl)amino)propyl)-8-methoxy-6,8,10,12,12-pentamethyl-1-oxa-4-azacyclotridecane-11,13-dione] | 4 to 32 (≈ 6.1 to 48.8 µM) | > 32 | < 4 | > 32 | < 4 | 4 to 32 (≈ 6.1 to 48.8 µM) | – | – | – | – | –
7 | CO[C@]1(C)C[C@@H](C)CN(C)[C@H]([C@@H](O)C2CCN(CC3CC3)CC2)COC(=O)C(C)(C)C(=O)[C@H](C)[C@H]1O[C@@H]1O[C@H](C)C[C@H](N(C)C)[C@H]1O [Compound 28] | – | – | – | – | – | – | + (values greater than 32 mg/L) | + (values greater than 32 mg/L) | + (values greater than 32 mg/L) | + (values greater than 32 mg/L) | + (values greater than 32 mg/L)
8 | CO[C@]1(C)C[C@@H](C)CN(C)[C@H](C[C@H]2C[C@H](N(C)CC(C)C)C2)COC(=O)C(C)(C)C(=O)[C@H](C)[C@H]1O[C@@H]1O[C@H](C)C[C@H](N(C)C)[C@H]1O [Compound 134, (3R,6R,8R,9R,10R)-9-(((2S,3R,4S,6R)-4-(dimethylamino)-3-hydroxy-6-methyltetrahydro-2H-pyran-2-yl)oxy)-3-(((1r,3S)-3-(isobutyl(methyl)amino)cyclobutyl)methyl)-8-methoxy-4,6,8,10,12,12-hexamethyl-1-oxa-4-azacyclotridecane-11,13-dione] | – | – | – | – | – | – | +++ (values less than or equal to 4 mg/L) | + (values greater than 32 mg/L) | + (values greater than 32 mg/L) | +++ (values less than or equal to 4 mg/L) | +++ (values less than or equal to 4 mg/L)
9 | C=C(C)C[C@]1(C)C(=O)OC[C@@H](CC2CCN(CCCCCCC)CC2)N(C)C[C@H](C)C[C@@](C)(OC)[C@H](O[C@@H]2O[C@H](C)C[C@H](N(C)C)[C@H]2O)[C@@H](C)C1=O [Compound 175] | – | – | – | – | – | – | ++ (values of greater than 4 mg/L and less than or equal to 32 mg/L) | + (values greater than 32 mg/L) | + (values greater than 32 mg/L) | +++ (values less than or equal to 4 mg/L) | + (values greater than 32 mg/L)
10 | CCN(C)[C@H]1C[C@H](C[C@]2(C)COC(=O)C(C)(C)C(=O)[C@H](C)[C@@H](O[C@@H]3O[C@H](C)C[C@H](N(C)C)[C@H]3O)[C@](C)(OC)C[C@@H](C)CN2C)C1 [Compound 196] | – | > 32 | 4 to 32 (≈ 6.25 to 50 µM) | > 32 | < 4 | > 32 | – | – | – | – | –
11 | CO[C@]1(C)C[C@@H](C)CN(C)[C@](C)(C[C@H]2C[C@H](N(C)CC3CC3)C2)COC(=O)C(C)(C)C(=O)[C@H](C)[C@H]1O[C@@H]1O[C@H](C)C[C@H](N(C)C)[C@H]1O [Compound 197] | – | > 32 | 4 to 32 (≈ 6.01 to 48.1 µM) | > 32 | < 4 | 4 to 32 (≈ 6.01 to 48.1 µM) | – | – | – | – | –
12 | CO[C@]1(C)C[C@@H](C)CN(C)[C@](C)(C[C@H]2C[C@H](N(C)C(C)C)C2)COC(=O)C(C)(C)C(=O)[C@H](C)[C@H]1O[C@@H]1O[C@H](C)C[C@H](N(C)C)[C@H]1O [Compound 198] | – | > 32 | 4 to 32 (≈ 6.12 to 48.9 µM) | > 32 | 4 to 32 (≈ 6.12 to 48.9 µM) | > 32 | – | – | – | – | –
13 | CN[C@H]1C[C@H](C[C@]2(C)COC(=O)C(C)(C)C(=O)[C@H](C)[C@@H](O[C@@H]3O[C@H](C)C[C@H](N(C)C)[C@H]3O)[C@](C)(OC)C[C@@H](C)CN2C)C1 [Compound 199] | – | > 32 | 4 to 32 (≈ 6.54 to 52.3 µM) | > 32 | 4 to 32 (≈ 6.54 to 52.3 µM) | > 32 | – | – | – | – | –
14 | CCN1C[C@H](C)C[C@@](C)(OC)[C@H](O[C@@H]2O[C@H](C)C[C@H](N(C)C)[C@H]2O)[C@@H](C)C(=O)C(C)(C)C(=O)OC[C@H]1[C@H](O)CCO [Compound 200, (3S,6R,8R,9R,10R)-3-((R)-1,3-dihydroxypropyl)-9-(((2S,3R,4S,6R)-4-(dimethylamino)-3-hydroxy-6-methyltetrahydro-2H-pyran-2-yl)oxy)-4-ethyl-8-methoxy-6,8,10,12,12-pentamethyl-1-oxa-4-azacyclotridecane-11,13-dione] | – | > 32 | > 32 | > 32 | 4 to 32 (≈ 6.79 to 54.3 µM) | > 32 | – | – | – | – | –
15 | CO[C@]1(C)C[C@@H](C)CN(C)[C@H]([C@H](O)[C@@H](O)CO)COC(=O)C(C)(C)C(=O)[C@H](C)[C@H]1O[C@@H]1O[C@H](C)C[C@H](N(C)C)[C@H]1O [Compound 201] | – | > 32 | > 32 | > 32 | 4 to 32 (≈ 6.77 to 54.2 µM) | > 32 | – | – | – | – | –
16 | CCCN(CCC)CC[C@@H](O)[C@@H]1COC(=O)C(C)(C)C(=O)[C@H](C)[C@@H](O[C@@H]2O[C@H](C)C[C@H](N(C)C)[C@H]2O)[C@](C)(OC)C[C@@H](C)CN1CC [Compound 223] | – | > 32 | 4 to 32 (≈ 5.95 to 47.6 µM) | > 32 | < 4 | 4 to 32 (≈ 5.95 to 47.6 µM) | – | – | – | – | –
17 | CCN1C[C@H](C)C[C@@](C)(OC)[C@H](O[C@@H]2O[C@H](C)C[C@H](N(C)C)[C@H]2O)[C@@H](C)C(=O)C(C)(C)C(=O)OC[C@H]1[C@H](O)CCN(C)C(C)C [Compound 224] | – | > 32 | 4 to 32 (≈ 6.21 to 49.7 µM) | > 32 | < 4 | 4 to 32 (≈ 6.21 to 49.7 µM) | – | – | – | – | –
18 | CCN1C[C@H](C)C[C@@](C)(OC)[C@H](O[C@@H]2O[C@H](C)C[C@H](N(C)C)[C@H]2O)[C@@H](C)C(=O)C(C)(C)C(=O)OC[C@H]1[C@H](O)CCN(C)CCO [Compound 225] | – | > 32 | 4 to 32 (≈ 6.19 to 49.5 µM) | > 32 | < 4 | 4 to 32 (≈ 6.19 to 49.5 µM) | – | – | – | – | –
19 | CCN1C[C@H](C)C[C@@](C)(OC)[C@H](O[C@@H]2O[C@H](C)C[C@H](N(C)C)[C@H]2O)[C@@H](C)C(=O)C(C)(C)C(=O)OC[C@H]1[C@H](O)CCN(C1CC1)C1Cc2ccccc2C1 [Compound 226] | – | > 32 | 4 to 32 (≈ 5.38 to 43 µM) | > 32 | < 4 | 4 to 32 (≈ 5.38 to 43 µM) | – | – | – | – | –
20 | CO[C@]1(C)C[C@@H](C)CN(C)[C@H]([C@](C)(O)CCN2CCCC2)COC(=O)C(C)(C)C(=O)[C@H](C)[C@H]1O[C@@H]1O[C@H](C)C[C@H](N(C)C)[C@H]1O [Compound 227] | – | > 32 | 4 to 32 (≈ 6.23 to 49.9 µM) | > 32 | 4 to 32 (≈ 6.23 to 49.9 µM) | > 32 | – | – | – | – | –
21 | CO[C@]1(C)C[C@@H](C)CN(C)[C@H]([C@](C)(O)CCN(C)CCO)COC(=O)C(C)(C)C(=O)[C@H](C)[C@H]1O[C@@H]1O[C@H](C)C[C@H](N(C)C)[C@H]1O [Compound 228] | – | > 32 | > 32 | > 32 | 4 to 32 (≈ 6.19 to 49.5 µM) | < 4 | – | – | – | – | –
22 | CCCN(CCC)CC[C@@](C)(O)[C@@H]1COC(=O)C(C)(C)C(=O)[C@H](C)[C@@H](O[C@@H]2O[C@H](C)C[C@H](N(C)C)[C@H]2O)[C@](C)(OC)C[C@@H](C)CN1C [Compound 229] | – | > 32 | 4 to 32 (≈ 5.95 to 47.6 µM) | > 32 | 4 to 32 (≈ 5.95 to 47.6 µM) | > 32 | – | – | – | – | –

Source: US12552825B2 (Zikani Therapeutics, Inc., priority 2019, dated 2026)
